Test results as given in patent publication US6277867A, “Pesticide compounds, compositions and process for the preparation thereof” (priority 1995, dated 2001).
Where two headings read alike, the source gives them in different places.

Legend:
[1] = tested on: two-spotted spider mite (Tetranychus urticae); experiment: Synergist activity of compound 599 against two-spotted spider mite; format: in vivo
Procedure: From the first pair of leaves of a 1 week old bean plant leaf-discs of […] diameter were cut which were treated by dipping them (5 min) into the test solution consisting of the active ingredient and the synergist in definite concentrations. For the preparation of the stock solutions of required concentration, 10% acetone as co-solvent and 0.1% Tween-80 as detergent were applied. The dried leaf-discs were placed on wet surface and they were infected with […]-up female mites per leaf. […] The experiment was performed in 4 replica.
Synergist activity of compound 599 with various specific acaricides was investigated against two-spotted spider mite (Tetranychus urticae), by the method described in Example 8.

[2] = tested on: resistant house fly, INSEL strain; experiment: Synergistic activity on resistant house fly, INSEL strain; format: in vivo, Musca domestica; conditions: active ingredient alone
Procedure: (§1) Investigation of Synergistic Activity on Resistant House Fly (Musca domestica) Populations
(§2) Investigation was carried out as described in biological Example 1. LD50 values and synergist ratios were determined as given in Example 2.

[3] = tested on: resistant house fly, IX strain; experiment: Synergistic activity on resistant house fly, IX strain; format: in vivo, Musca domestica; conditions: active ingredient alone
Procedure: as §1, §2

[4] = tested on: pea aphid (Acyrthosiphon pisun); experiment: Synergist activity against pea aphid, field trial; format: in vivo; conditions: two days after treatment
Procedure: Synergist Activity Against Pea Aphid (Acyrthosiphon pisun)
Synergist activity of compound No. 599 was tested against pea aphid (Acyrthosiphon pisun) in field trials on small plots (10 m^2). 300 l/ha spray volume was applied using motoric sprayer (Maruyama). Efficacy was expressed by the average number of aphids/leaf before, and two days after the treatment, respectively. (Henderson and Tilton: J. Econ. Entomol., 48:157, 1955).

[5] = tested on: two-spotted spider mite (Tetranychus urticae); experiment: Synergism of acaricidal effect on two-spotted spider mite (leaf-disc dip); format: in vivo; conditions: 48 h
Procedure: Synergism of Acaricidal Effect Investigated on Two-spotted Spider Mite (Tetranychus urticae)
From the first pair of leaves of a 1 week old bean plant leaf-discs of […] diameter were cut which were treated by dipping them (5 min) into the test solution consisting of the active ingredient and the synergist in definite concentrations. For the preparation of the stock solutions of required concentration, 10% acetone as co-solvent and 0.1% Tween-80 as detergent were applied. The dried leaf-discs were placed on wet surface and they were infected with […]-up female mites per leaf. After 48 hours the mortality was recorded using microscope and a brush. The experiment was performed in 4 replica.

CCc1nn(C)c(C(=O)NCc2ccc(C(C)(C)C)cc2)c1Cl [TEBUFENPYRAD]
LC50 ([1]; Acaricide/Synergist 1:0, 3 h, read-out: LC50): > 1000 µg/mL
LC50 ([1]; Acaricide/Synergist 1:0, 24 h, read-out: LC50): 63.4 µg/mL

CNC(=O)Oc1cccc2c1OC(C)(C)O2 [BENDIOCARB, reference compound]
LD50 [2]: 100000 ng/fly
LD50 [3]: 100000 ng/fly

CCOC(=O)CSc1nc(C(C)(C)C)nn1C(=O)N(C)C [TRIAZAMATE]
E (%) ([4]; dose 50 act. ingr./ha): 96.8%

Cc1nc(N(C)C)nc(OC(=O)N(C)C)c1C [PIRIMICARB, reference compound]
LD50 [2]: > 100000 ng/fly
LD50 [3]: > 100000 ng/fly
E (%) ([4]; dose 80 act. ingr./ha): 86.3%
E (%) ([4]; dose 250 act. ingr./ha): 93.8%

O=[N+]([O-])NC1=NCCN1Cc1ccc(Cl)nc1 [IMIDACLOPRID]
E (%) ([4]; dose 120 act. ingr./ha): 98.4%

CNC(=O)O/N=C/C(C)(C)SC [ALDICARB, reference compound]
LD50 [2]: 695 ng/fly
LD50 [3]: 2104 ng/fly

CNC(=O)Oc1cccc2c1OC(C)(C)C2 [CARBOFURAN, reference compound]
LD50 [2]: 15375 ng/fly
LD50 [3]: > 100000 ng/fly
mortality at 31 ppm [5]: 13%
mortality at 62 ppm [5]: 39%
mortality at 125 ppm [5]: 44%
mortality at 250 ppm [5]: 81%
mortality at 500 ppm [5]: 90%
LC50 ([1]; 24 h): 164 µg/mL
E (%) ([4]; dose 110 act. ingr./ha): 98.0%
E (%) ([4]; dose 160 act. ingr./ha): 99.1%

CNC(=O)ON=C(C)SC [METHOMYL, reference compound]
LD50 [2]: 475 ng/fly
LD50 [3]: 851 ng/fly
